One assay relates to Human betaherpesvirus 5. Description: Inhibitory concentration against human cytomegalovirus (CMV) in cultured human foreskin fibroblast (HFF) cells. The settings on record: Human betaherpesvirus 5, HFF. In kind it is functional, organism-based.
In a further assay the test system is Human alphaherpesvirus 2. Description: Inhibitory concentration against Herpes simplex virus (HSV). In kind it is functional, organism-based.
Another assay deals with Human alphaherpesvirus 3. Description: Inhibitory concentration against Varicella zoster virus (VZV). In kind it is functional, organism-based.
Assay [1] is described as follows: MTS cellular toxicity was determined. The class given is functional.

≈ marks a conversion by molar mass, not a printed value.

On to `Cc1ccc(N/C(S)=N/c2ccc(NC(=O)c3ccco3)cc2)cc1Cl`, for which the IC50 with Human betaherpesvirus 5 is 0.09 µg/mL (≈ 0.233 µM); with Human alphaherpesvirus 2 it was more than 10 µg/mL; with Human alphaherpesvirus 3 it was more than 10 µg/mL.

Consider `COc1cc(OC)c(N/C(S)=N/c2ccc(NC(=O)c3ccco3)cc2C)cc1Cl`, for which the IC50 in the assay on Human betaherpesvirus 5 was 0.6 µg/mL (≈ 1.35 µM); in the assay on Human alphaherpesvirus 2, more than 10 µg/mL; in the assay on Human alphaherpesvirus 3, more than 10 µg/mL.

Regarding `O=C(Nc1ccc(/N=C(\S)Nc2ccc(F)c(Cl)c2)cc1)c1ccco1`, the IC50 in the assay with Human betaherpesvirus 5 was 0.06 µg/mL (≈ 0.154 µM); in the assay with Human alphaherpesvirus 2 it was more than 10 µg/mL; with Human alphaherpesvirus 3, more than 10 µg/mL.

Regarding `O=C(Nc1ccc(/N=C(\S)Nc2cc(C(F)(F)F)cc(C(F)(F)F)c2)cc1)c1ccco1`, the IC50 in the assay on Human betaherpesvirus 5 is 0.04 µg/mL (≈ 0.0845 µM); in the assay with Human alphaherpesvirus 2, more than 10 µg/mL; with Human alphaherpesvirus 3 it was 7 µg/mL (≈ 14.8 µM).

On to `O=C(Nc1ccc(/N=C(\S)Nc2ccc(C(F)(F)F)c(Cl)c2)cc1)c1cocn1`, for which the half-maximal inhibitory concentration (IC50) in the assay with Human betaherpesvirus 5 was 0.02 µg/mL (≈ 0.0454 µM); in the assay on Human alphaherpesvirus 2, more than 10 µg/mL; in the assay on Human alphaherpesvirus 3, more than 10 µg/mL.

As to `COc1cc(OC)c(N/C(S)=N/c2cc(OC)c(NC(=O)c3ccco3)cc2OC)cc1Cl`, the IC50 in the assay on Human betaherpesvirus 5 is more than 10 µg/mL; in the assay with Human alphaherpesvirus 2, more than 10 µg/mL; in the assay on Human alphaherpesvirus 3 it was 4 µg/mL (≈ 8.13 µM).

As for `COc1cc(OC)c(N/C(S)=N/c2ccc(NC(C)=O)cc2)cc1Cl`, the half-maximal inhibitory concentration (IC50) in the assay on Human betaherpesvirus 5 was 45 µg/mL (≈ 118 µM); in the assay on Human alphaherpesvirus 2, 3 µg/mL (≈ 7.9 µM); in the assay with Human alphaherpesvirus 3, more than 10 µg/mL. Besides, the Activity in assay [1] was more than 10 µg/mL.

Turning to `COc1cc(OC)c(N/C(S)=N/c2ccc(NC(=O)c3ccccc3)cc2)cc1Cl`, the concentration for half-maximal inhibition (IC50) was 4 µg/mL (≈ 9.05 µM) with Human betaherpesvirus 5, 0.3 µg/mL (≈ 0.679 µM) with Human alphaherpesvirus 2 and more than 10 µg/mL with Human alphaherpesvirus 3. In assay [1], this molecule had an Activity of more than 10 µg/mL.

For the molecule `O=C(Nc1ccc(/N=C(\S)Nc2cc(C(F)(F)F)cc(C(F)(F)F)c2)cc1)c1csnn1`, the half-maximal inhibitory concentration (IC50) with Human betaherpesvirus 5 is 0.02 µg/mL (≈ 0.0407 µM); with Human alphaherpesvirus 2, more than 10 µg/mL; in the assay on Human alphaherpesvirus 3, more than 10 µg/mL.

Turning to `O=C(Nc1ccc(/N=C(\S)Nc2ccc(Cl)c(C(F)(F)F)c2)cc1)c1ccco1`, the IC50 was 0.03 µg/mL (≈ 0.0682 µM) in the assay on Human betaherpesvirus 5, more than 10 µg/mL in the assay with Human alphaherpesvirus 2 and more than 10 µg/mL with Human alphaherpesvirus 3.

For `O=C(Nc1ccc(/N=C(\S)Nc2cccc(C(F)(F)F)c2)cc1)c1ccco1`, the figures for the concentration for half-maximal inhibition (IC50) in the assay with Human betaherpesvirus 5, in the assay with Human alphaherpesvirus 2 and with Human alphaherpesvirus 3 were 0.06 µg/mL (≈ 0.148 µM), more than 10 µg/mL and more than 10 µg/mL, respectively.

Regarding `O=C(Nc1ccc(/N=C(\S)Nc2cc(C(F)(F)F)cc(C(F)(F)F)c2)cc1)c1cocn1`, the IC50 in the assay on Human betaherpesvirus 5 is 0.03 µg/mL (≈ 0.0632 µM); with Human alphaherpesvirus 2 it was more than 10 µg/mL; with Human alphaherpesvirus 3 it was more than 10 µg/mL.

For the molecule `COc1cc(OC)c(N/C(S)=N/c2ccc(NC(=O)c3ccco3)c(C)c2)cc1Cl`, the 50% inhibitory concentration (IC50) in the assay with Human betaherpesvirus 5, in the assay on Human alphaherpesvirus 2 and with Human alphaherpesvirus 3 was more than 10 µg/mL throughout. This molecule showed an Activity in assay [1] of more than 10 µg/mL.

For the molecule `O=C(Nc1ccc(/N=C(\S)Nc2ccc(C(F)(F)F)c(Cl)c2)cc1)c1ccccn1`, the IC50 in the assay on Human betaherpesvirus 5, with Human alphaherpesvirus 2 and in the assay on Human alphaherpesvirus 3 was more than 10 µg/mL each time.

For `O=C(Nc1ccc(NC(=S)Nc2ccccc2)cc1)c1ccco1`, the 50% inhibitory concentration (IC50) in the assay with Human betaherpesvirus 5 is 0.3 µg/mL (≈ 0.889 µM); in the assay with Human alphaherpesvirus 2, more than 10 µg/mL; in the assay on Human alphaherpesvirus 3, more than 10 µg/mL.

On to `COc1cc(OC)c(N/C(S)=N/c2ccc(NC(=O)c3ccco3)cc2C(F)(F)F)cc1Cl`, for which the results for the IC50 with Human betaherpesvirus 5, in the assay on Human alphaherpesvirus 2 and in the assay on Human alphaherpesvirus 3 were 2 µg/mL (≈ 4 µM), 2.5 µg/mL (≈ 5 µM) and more than 10 µg/mL, respectively. In addition, the Activity in assay [1] is more than 10 µg/mL.

For the molecule `COc1cc(OC)c(N/C(S)=N/c2ccc(NC(=O)c3ccco3)cc2C#N)cc1Cl`, the concentration for half-maximal inhibition (IC50) with Human betaherpesvirus 5, in the assay on Human alphaherpesvirus 2 and in the assay with Human alphaherpesvirus 3 was more than 10 µg/mL throughout. The same molecule yielded an Activity in assay [1] of more than 10 µg/mL.

Take `COc1cc(OC)c(N/C(S)=N/c2ccc(NC(=O)c3ccco3)cc2)cc1Cl`: the figures for the 50% inhibitory concentration (IC50) with Human betaherpesvirus 5, with Human alphaherpesvirus 2 and in the assay on Human alphaherpesvirus 3 were 0.2 µg/mL (≈ 0.463 µM), more than 10 µg/mL and more than 10 µg/mL, respectively. This molecule displayed an Activity in assay [1] of more than 10 µg/mL.

For `CCC(=O)Nc1ccc(N/C(S)=N/c2cc(Cl)c(OC)cc2OC)cc1`, the IC50 in the assay with Human alphaherpesvirus 2 is 3 µg/mL (≈ 7.62 µM); in the assay on Human alphaherpesvirus 3, more than 10 µg/mL. The same molecule came in with an Activity in assay [1] of more than 10 µg/mL.

For `Cc1cccc(N/C(S)=N/c2ccc(NC(=O)c3ccco3)cc2)c1`, the IC50 is 0.06 µg/mL (≈ 0.171 µM) with Human betaherpesvirus 5, more than 10 µg/mL with Human alphaherpesvirus 2 and more than 10 µg/mL with Human alphaherpesvirus 3.

`COc1cc(OC)c(N/C(S)=N/c2ccc(NC(=O)c3ccco3)c(OC)c2)cc1Cl`: the IC50 was more than 10 µg/mL with Human betaherpesvirus 5, 8 µg/mL (≈ 17.3 µM) in the assay with Human alphaherpesvirus 2 and more than 10 µg/mL with Human alphaherpesvirus 3.

As for `O=C(Nc1ccc(/N=C(\S)Nc2cc(C(F)(F)F)cc(C(F)(F)F)c2)cc1)c1cscn1`, the values for the half-maximal inhibitory concentration (IC50) with Human betaherpesvirus 5, with Human alphaherpesvirus 2 and with Human alphaherpesvirus 3 were 0.008 µg/mL (≈ 0.0163 µM), more than 10 µg/mL and more than 10 µg/mL, respectively.

On to `O=C(Nc1ccc(/N=C(\S)Nc2ccc(C(F)(F)F)c(Cl)c2)cc1)c1cscn1`, for which the results for the IC50 with Human betaherpesvirus 5, with Human alphaherpesvirus 2 and in the assay on Human alphaherpesvirus 3 were 0.006 µg/mL (≈ 0.0131 µM), more than 10 µg/mL and more than 10 µg/mL, respectively.

As a reminder, the IC50 is the concentration that inhibits the measured activity by half.

(Values after ChEMBL document CHEMBL1136189, “Thiourea inhibitors of herpes viruses. Part 1: bis-(aryl)thiourea inhibitors of CMV” (Bioorg Med Chem Lett, 2003).)
